{"source": "patent US12064522B2", "about": "“Low temperature process for preparing silicon oxide coated pharmaceuticals” (priority 2020, dated 2024)", "assay": "Flowability (Flow Function, FF) of API particles", "type": "physicochemical", "data": [{"smiles": "Cn1c(=O)c2[nH]cnc2n(C)c1=O", "note": "[theophylline]", "values": [{"measurement": "Flowability (Flow Function; FF) of uncoated particles", "result": 10}]}, {"smiles": "CC(=O)Nc1ccc(O)cc1", "note": "[Acetaminophen]", "values": [{"measurement": "Flowability (Flow Function; FF) of uncoated particles", "result": 2.61}]}, {"smiles": "CC(C)Cc1ccc(C(C)C(=O)O)cc1", "note": "(stereo not drawn) [ibuprofen]", "values": [{"measurement": "Flowability (Flow Function; FF) of uncoated particles", "result": 4.23}]}]}
